“And” between values parts separate entries of the source, which are not always exact repeats. Identical values can stand only once.

This test deals with S. Typhimurium PhoP-regulated promoter GFP reporter, 4 h. As to the kind of experiment: inhibitors of PhoP regulon expression, primary screen, Salmonella Typhimurium, GFP reporter (AID 1863).
For `COC(=O)c1c(NC(=O)c2ccc([N+](=O)[O-])o2)sc2c1CCN(C(C)C)C2`, the half-maximal inhibitory concentration (IC50) is 56.3 µM. The value for `CNC(=S)N1CCN(c2c(F)cc3c(=O)c(C(=O)O)cn(C4CC4)c3c2OC)CC1C` (stereo not drawn) was 17.6 µM; that for `COc1cc(Cc2cc(N)nc(N)n2)cc(OC)c1OC` was 4.97 µM. For the molecule `CSCC[C@H](NC(=O)Nc1ccc(C)cc1)C(=O)O`, the IC50 was 123 µM. The value for `Nc1[nH]c(=O)ncc1F` was 29.2 µM; that for `Cc1[nH]n(-c2ccccc2)c(=O)c1/C=N/Nc1nncc(-c2ccccc2)n1` was 29.5 µM; that for `O=[N+]([O-])c1cc(Cl)c(O)c2ncccc12` was 6.16 µM. As to `CCCCCCCCCCOC(=O)Cn1c(COc2ccc(OC)cc2)[n+](C)c2ccccc21`, the half-inhibitory concentration (IC50) was 22.9 µM and 22.5 µM. As for `CCC(C)NC(=O)c1cn(CC)c2cc(N3CCN(C)CC3)c(F)cc2c1=O` (stereo not drawn), the figure is 37.2 µM; as for `Cc1cc(C)c2ccc(N)nc2c1O`, 69.4 µM. As for `O=[N+]([O-])c1ccc(O)c(/C=N/Nc2ccccn2)c1`, the figure is 17 µM. Regarding `O=C1C=C(N2CCOCC2)c2ccccc2C1=O`, the IC50 was 51.2 µM. Turning to `Cc1cccc(Nc2c3c(nc4ccccc24)CCC3)c1`, the IC50 is 106 µM. Take `O=C(N[C@H](CO)[C@H](O)c1ccc([N+](=O)[O-])cc1)C(Cl)Cl`: the IC50 was 9.52 µM. As for `Cc1sc2ncnc(N/N=C/c3ccccc3O)c2c1C`, the figure is 82.2 µM; as for `CN(C)S(=O)(=O)c1cccc(NC(=S)N/N=C/c2cc(Br)ccc2O)c1`, 69.3 µM. As for `O=C1c2ccccc2C(=O)c2[nH]c(=O)[nH]c21`, the figure is 14.5 µM. As for `CC(=O)Oc1cc2cccc(OC(C)=O)c(=O)c2c(OC(C)=O)c1OC(C)=O`, the IC50 is 46.7 µM.

On to `Oc1cccc(/C=N/Nc2ccc(Cl)nn2)c1O`, for which the IC50 was 138 µM.

For `COc1ccc(Nc2cc(C)nc(NCc3ccccc3)n2)cc1`, the half-inhibitory concentration (IC50) was 97.1 µM. As for `Cc1nc2c(=O)n(C)c(=O)nc-2n(C)n1`, the figure is 1.15 µM; as for `CCN1/C(=C/C(C)=C/c2sc3ccccc3[n+]2CC)Sc2ccccc21`, 17.7 µM. As for `NC1CCN(c2c(F)cc3c(=O)c(C(=O)O)cn(C4CC4)c3c2Cl)C1` (stereo not drawn), the figure is less than 0.23 µM. As for `N=C(N)SCc1cn(-c2ccccc2)nc1-c1ccc(Br)cc1`, the figure is 30.5 µM; as for `Oc1cccc(C=NCc2ccccc2)c1O`, 106 µM. For the molecule `NC1=NC[C@H](c2ccccc2)N1CCCCC1CCCCC1`, the IC50 was 40.6 µM. The value for `O=C(C[n+]1cc(-c2ccc(Cl)cc2)n2c1CCC2)Nc1nc(-c2ccccc2)cs1` was 84.8 µM; that for `O=C(N/N=C/c1ccc([N+](=O)[O-])s1)C(O)c1ccccc1` (stereo not drawn) was 83.6 µM; that for `COC12C(COC(N)=O)C3=C(C(=O)C(C)=C(N)C3=O)N1CC1C2N1C` (stereo not drawn) was 16.3 µM. The value for `CCCc1cnc(NCCNCC(O)COc2ccc(Cl)c(Cl)c2)nc1` (stereo not drawn) was 54.2 µM; that for `CCCCCCCCCCCCCCCCn1cc[n+](C)c1` was 17.1 µM; that for `COc1ccccc1CNCC(O)Cn1c2ccccc2c2ccccc21` (stereo not drawn) was 104 µM. As for `Fc1ccc(CCNCc2ccc(Cl)c(Cl)c2)cc1`, the figure is 84.3 µM; as for `Nc1cc2nsnc2cc1Br`, 105 µM; as for `NC1=NC[C@H](Cc2ccc(O)cc2)N1CCCCC1CCCCC1`, 57.2 µM. With `O=C(O)CCN1C(=O)CC(N2C(=O)/C(=C/c3ccc(Cl)cc3)SC2=S)C1=O` (stereo not drawn), the concentration for half-maximal inhibition (IC50) is 40.4 µM. As for `COc1ccc(/C=N/Nc2cc(C)nc3c(C)cccc23)cc1`, the IC50 is 80.6 µM. As for `CCn1cc(C(=O)NCCCN(C)C)c(=O)c2cc(F)c(N3CCN(C)CC3)cc21`, the figure is 49.1 µM; as for `Clc1ccc(Cl)c(OCCCCNCc2ccccc2)c1`, 123 µM. Consider `COC(=O)C1C(O)C(C)C(O)C(C)(O)/C=C\C=C(/C)C(=O)Nc2c(C)c(OC(C)=O)c3c(c2O)C(=O)C(C)=C2OCOC(=C23)/C(C)=C/C(C)(O)C(O)C(C)C1O` (stereo not drawn), for which the IC50 is 17.2 µM. As for `CCn1cc(C(=O)O)c(=O)c2cc(F)c(N3CCN(C(=S)Nc4ccccc4OC)CC3)cc21`, the figure is 10.9 µM. As for `CCn1cc(C(=O)O)c(=O)c2cnc(N3CCNCC3)nc21`, the figure is 29.8 µM; as for `CCCCOc1ccc(Cc2cnc(N)nc2N)cc1`, 90.8 µM; as for `C/C(=C\C(=O)OCCCCCCCCC(=O)O)C[C@@H]1OC[C@H](C[C@@H]2O[C@H]2[C@@H](C)[C@H](C)O)[C@@H](O)[C@H]1O`, 10.5 µM.

Consider `O=Cc1ccc(O)c2ncccc12`, for which the IC50 is 10.2 µM. As for `C#CCOCCOCCOCCNc1nc(N2CCN(C(=O)CCCCCCCCCCNC(=O)[C@H](CO)n3cc(CCCCCN)nn3)CC2)nc(N2CCN(C(=O)CCCCCCCCCCNC(=O)[C@H](CCCN=C(N)N)n3cc(C[C@@H](C)CC)nn3)CC2)n1`, the figure is 102 µM.

As to `CCn1cc(C(=O)O)c(=O)c2cc(F)c(N3CCN(C(=S)NC(=O)c4ccccc4C)CC3)cc21`, the concentration for half-maximal inhibition (IC50) was 13.5 µM.

For the molecule `CCn1cc(C(=O)O)c(=O)c2cc(F)c(N3CCN(C(=S)NC(=O)c4ccc(OC)cc4)CC3)cc21`, the half-maximal inhibitory concentration (IC50) was 11.3 µM. The value for `Cc1ccc(C(c2cc(Cl)c3cccnc3c2O)N2CCN(C)CC2)cc1` (stereo not drawn) was 55.5 µM; that for `C=CC1=C(C(=O)O)N2C(=O)[C@@H](NC(=O)/C(=N\O)c3csc(N)n3)[C@H]2SC1` (stereo in doubt) was 25.2 µM. For the molecule `Clc1ccc(CNCc2cccs2)cc1Cl`, the IC50 is 73.3 µM. As to `Oc1ccc(CNc2ccccc2F)c2cccnc12`, the IC50 is 96.5 µM. The value for `C[C@H]1COc2c(N3CCN(C)CC3)c(F)cc3c(=O)c(C(=O)O)cn1c23` was less than 0.23 µM; that for `O=C1C(=O)c2ccccc2-c2ccccc21` was 11.7 µM. The value for `COc1ccc(Nc2cc(C)c3c(O)cccc3n2)cc1` was 68.6 µM; that for `CCCCCCCCCCCCCCCC[N+](C)(C)C` was 34.3 µM; that for `CN1CCN(C(c2ccc(Cl)cc2)c2cc(Cl)c3cccnc3c2O)CC1` (stereo not drawn) was 44.1 µM. Regarding `Nc1ncn([C@@H]2O[C@H](CO)[C@@H](O)[C@H]2O)c(=O)n1`, the IC50 is 50.4 µM. Regarding `CCn1cc(C(=O)O)c(=O)c2cc(F)c(N3CCN(C(=S)NC(=O)c4c(OC)cccc4OC)CC3)cc21`, the half-inhibitory concentration (IC50) was 30 µM.

As for `O=S1(=O)N=C(N/N=C/c2ccccn2)c2ccccc21`, the 50% inhibitory concentration (IC50) is 34.5 µM.

Take `CCCNC(=O)c1cn(CC)c2cc(N3CCN(C)CC3)c(F)cc2c1=O`: the half-inhibitory concentration (IC50) was 25.8 µM. `CCCCCCCCCCCCCCCCn1cc[n+](CC(C)=O)c1`: the 50% inhibitory concentration (IC50) is 31.8 µM.

In the case of `Nc1nc2ccccc2n1Cc1ccc(Cl)c(Cl)c1`, the concentration for half-maximal inhibition (IC50) is 82.9 µM. `CCCC(=O)NC(c1cccs1)c1cc([N+](=O)[O-])c2cccnc2c1O` (stereo not drawn): the IC50 is 38.2 µM. For `Cc1cc(C(C)(C)CC(C)(C)C)ccc1OCCOCC[N+](C)(C)Cc1ccccc1`, the IC50 was 31.8 µM. `CN(C)c1ccc(O)c2c1CC1CC3[C@@H](N(C)C)C(=O)C(C(N)=O)=C(O)[C@]3(O)C(=O)C1=C2O` (stereo partly drawn): the IC50 is 9.56 µM. The value for `CCCCCCCCn1c2c(c(=N)c3ccccc31)CCC2` was 47.7 µM; that for `CC(=O)c1c(C)n([O-])c2cc(F)c(F)cc2[n+]1=O` was 130 µM; that for `CCn1cc(C(=O)O)c(=O)c2cc(F)c(N3CCN(S(=O)(=O)c4ccc(NC(C)=O)cc4)CC3)cc21` was 135 µM.

As to `CCCCCCCCNC(C)C(O)c1ccc(SC(C)C)cc1` (stereo not drawn), the IC50 is 75.2 µM. For the molecule `O=c1[nH]cc(F)c(=O)[nH]1`, the IC50 is 9.78 µM. As for `O=C(N/N=C/c1cc([N+](=O)[O-])ccc1O)c1ccncc1`, the IC50 is 58.4 µM. The value for `COc1cnc(-c2ccccn2)[nH]c1=O` was 55.2 µM; that for `NC1=NC[C@H](Cc2ccccc2)N1CCCCC1CCCCC1` was 47.7 µM.

As to `CCn1cc(C(=O)O)c(=O)c2cc(F)c(N3CCN(C(=O)Nc4ccccc4)CC3)cc21`, the IC50 is 32.1 µM. The value for `Cc1onc(-c2ccccc2)c1C(=O)NC(=S)NNC(=O)c1ccc(O)cc1O` was 111 µM; that for `CCN(CC)CCOc1ccc2c(c1)C(=NNC(=O)c1ccccn1)c1cc(OCCN(CC)CC)ccc1-2` was 42.5 µM. The value for `CCCCCCCCCCOC(=O)C[N+](C)(C)C/C=C(/C)Cl` was 51.1 µM; that for `Clc1ccc(OCCn2ccnc2)c2ccccc12` was 85.6 µM; that for `O=C(C[n+]1cc(-c2ccc(Cl)cc2)n2c1CCC2)Nc1nc(-c2ccc(F)cc2)cs1` was 73.7 µM.

For `CC[C@@H](C)[C@H](CNC)NC[C@@H](Cc1cccc2ccccc12)NCCc1cccc(C(F)(F)F)c1`, the IC50 was 33.2 µM.

For the molecule `Cc1nc(N)c(Cc2ccc(Cl)cc2Cl)c(N)n1`, the concentration for half-maximal inhibition (IC50) was 105 µM. For the molecule `CCCCCCCSc1cc(OC)c(CCN(C)C)cc1OC`, the IC50 is 67.5 µM. For the molecule `O=[N+]([O-])c1cc(F)c2cccnc2c1O`, the IC50 is 12 µM. For the molecule `C=CC1=C(C(=O)O)N2C(=O)[C@@H](NC(=O)/C(=N/OCC(=O)O)c3csc(N)n3)[C@H]2SC1`, the half-inhibitory concentration (IC50) is 22.4 µM. For `Cc1ccc(Nc2cc(C)c3c(O)cccc3n2)cc1C`, the half-maximal inhibitory concentration (IC50) is 75.3 µM. The value for `COC(=O)C(C)NC(=S)N1CCN(c2c(F)cc3c(=O)c(C(=O)O)cn(C4CC4)c3c2OC)CC1C` (stereo not drawn) was 75.4 µM.

On to `Clc1cc(Br)ccc1OCCCNCc1ccccc1`, for which the half-maximal inhibitory concentration (IC50) is 82.8 µM. With `O=C(C[n+]1cc(-c2ccc(Cl)c(Cl)c2)n2c1CCC2)N1c2ccccc2Sc2ccccc21`, the IC50 was 72.7 µM. As for `CCCCCOc1ccc(Br)cc1CSC(=N)N`, the figure is 58.1 µM. Turning to `O=[N+]([O-])c1cc(/C=N/Nc2nc3ccccc3[nH]2)c(O)cc1O`, the IC50 was 24.3 µM. In the case of `CC1COc2c(N3CCN(C)CC3)c(F)cc3c(=O)c(C(=O)O)cn1c23` (stereo not drawn), the concentration for half-maximal inhibition (IC50) was 0.39 µM. As for `O=[N+]([O-])c1cc(Cl)c2cccnc2c1O`, the figure is 3.07 µM.

On to `Cc1cc(SCC(=O)N/N=C/c2ccc(O)c(O)c2O)c(C)cc1Br`, for which the IC50 was 41.6 µM. As for `O=[N+]([O-])c1ccc(N/N=C/c2ccc[nH]2)cc1`, the IC50 is 75 µM. With `CCCCCOc1ccc(CSC(=N)N)cc1[N+](=O)[O-]`, the IC50 is 82.7 µM. As for `C[C@H]1c2cccc(O)c2C(O)=C2C(=O)C3(O)C(O)=C(C(N)=O)C(=O)[C@@H](N(C)C)[C@@H]3[C@@H](O)[C@@H]21` (stereo partly drawn), the figure is 6.6 µM; as for `O=Nc1ccc(O)c2ncccc12`, 56.3 µM.

Source of the values: PubChem BioAssay AID1863 (Southern Research Specialized Biocontainment Screening …, 2009).
